Experimental data published in patent publication US10266537B2, “3-acetylenyl-pyrazole-pyrimidine derivative, and preparation method therefor and uses thereof” (Si Chuan University, priority 2015, dated 2019).
Where two headings read alike, the source gives them in different places.

Assays:
MDA-MB-231 = test: Cell proliferation inhibition assay (MTT); type: cell-based, human; settings: Homo sapiens, read-out: Proliferative inhibitory activity MDA-MB-231 (IC50 class)
MDA-MB-435 = test: Cell proliferation inhibition assay (MTT); type: cell-based, human; settings: Homo sapiens, read-out: Proliferative inhibitory activity MDA-MB-435 (IC50 class)

Row | Compound | IC50 (MDA-MB-231; MDA-MB-231, MTT, 72 hours) [nM] | IC50 (MDA-MB-435; MDA-MB-435, MTT, 72 hours) [nM] | IC50 (MDA-MB-231; MDA-MB-231, 72 h) [nM] | IC50 (MDA-MB-435; MDA-MB-435, 72 h) [nM]
1 | Cc1ccc(NC(=O)c2ccc(CN3CCN(C)CC3)cc2)cc1C#Cc1nn(C(C)C)c2ncnc(N)c12 [Compound 1] | 100 to 500 | 100 to 500 |  | 
2 | CCn1nc(C#Cc2cc(C(=O)Nc3ccc(CN4CCN(C)CC4)c(C(F)(F)F)c3)ccc2C)c2c(N)ncnc21 [Compound 2] | < 100 | < 100 |  | 
3 | CC(=O)Nc1ncnc2c1c(C#Cc1cc(C(=O)Nc3ccc(CN4CCN(C)CC4)c(C(F)(F)F)c3)ccc1C)nn2C(C)C [Compound 15] | 100 to 500 | 100 to 500 |  | 
4 | Cc1ccc(C(=O)Nc2ccc(CN3CCN(C)CC3)c(C(F)(F)F)c2)cc1C#Cc1nn([C@@H]2CCOC2)c2ncnc(N)c12 [Compound 20] |  |  | < 100 | < 100
5 | Cc1ccc(C(=O)Nc2ccc(CN3CCN(C)CC3)c(C(F)(F)F)c2)cc1C#Cc1nn([C@H]2CCOC2)c2ncnc(N)c12 [Compound 21] |  |  | < 100 | < 100
6 | CN1CCC(n2nc(C#Cc3cc(NC(=O)c4cccc(C(F)(F)F)c4)ccc3Cl)c3c(N)ncnc32)CC1 [Compound 34] | 500 to 1000 | 100 to 500 |  | 
7 | Cc1ccc(NC(=O)Nc2cccc(C(F)(F)F)c2)cc1C#Cc1nn(C2CCN(C)CC2)c2ncnc(N)c12 [Compound 35] | 500 to 1000 | < 100 |  | 
8 | CN1CCC(n2nc(C#Cc3cc(C(=O)Nc4cccc(C(F)(F)F)c4)ccc3Cl)c3c(N)ncnc32)CC1 [Compound 38] | 500 to 1000 | 100 to 500 |  | 
9 | CN1CCC(n2nc(C#Cc3cccc(NC(=O)Nc4cccc(C(F)(F)F)c4)c3)c3c(N)ncnc32)CC1 [Compound 39] | > 1000 | 500 to 1000 |  | 
10 | COc1cccc(C(=O)Nc2ccc(C)c(C#Cc3nn(C4CCN(C)CC4)c4ncnc(N)c34)c2)c1 [Compound 44] | 100 to 500 | 100 to 500 |  | 
11 | Cc1ccc(NC(=O)c2cccc(C(F)(F)F)c2F)cc1C#Cc1nn(C2CCN(C)CC2)c2ncnc(N)c12 [Compound 48] | 100 to 500 | 100 to 500 |  | 
12 | Cc1ccc(NC(=O)c2cccc(Cl)c2)cc1C#Cc1nn(C2CCN(C)CC2)c2ncnc(N)c12 [Compound 49] | < 100 | 500 to 1000 |  | 
13 | Cc1ccc(NC(=O)c2cc(F)cc(C(F)(F)F)c2)cc1C#Cc1nn(C2CCN(C)CC2)c2ncnc(N)c12 [Compound 51] | 500 to 1000 | > 1000 |  | 
14 | Cc1ccc(NC(=O)c2cccc(OC(F)(F)F)c2)cc1C#Cc1nn(C2CCN(C)CC2)c2ncnc(N)c12 [Compound 52] | < 100 | < 100 |  | 
15 | Cc1ccc(NC(=O)c2ccc(Cl)cc2)cc1C#Cc1nn(C2CCN(C)CC2)c2ncnc(N)c12 [Compound 53] | < 100 | 100 to 500 |  | 
16 | Cc1ccc(NC(=O)c2cc(C(F)(F)F)cc(C(F)(F)F)c2)cc1C#Cc1nn(C2CCN(C)CC2)c2ncnc(N)c12 [Compound 54] | < 100 | < 100 |  | 
17 | Cc1ccc(NC(=O)c2cc(C(F)(F)F)cc(Cl)c2F)cc1C#Cc1nn(C2CCN(C)CC2)c2ncnc(N)c12 [Compound 56] | > 1000 | > 1000 |  | 
18 | Cc1ccc(NC(=O)c2ccc(Cl)c(Cl)c2)cc1C#Cc1nn(C2CCN(C)CC2)c2ncnc(N)c12 [Compound 60] | 100 to 500 | 500 to 1000 |  | 
19 | Cc1ccc(C(=O)Nc2cc(C(C)(C)C)nn2C)cc1C#Cc1nn(C2CCN(C)CC2)c2ncnc(N)c12 [Compound 61] | 100 to 500 | 100 to 500 |  | 
20 | Cc1ccc(NC(=O)c2cc(Cl)cc(C(F)(F)F)c2)cc1C#Cc1nn(C2CCN(C)CC2)c2ncnc(N)c12 [Compound 66] | < 100 | < 100 |  | 
21 | Cc1ccc(NC(=O)c2ccc(Cl)c(C(F)(F)F)c2)cc1C#Cc1nn(C2CCN(C)CC2)c2ncnc(N)c12 [Compound 67] | < 100 | < 100 |  | 
22 | Cc1ccc(NC(=O)c2ccc(Cl)c(C(F)(F)F)c2)cc1C#Cc1nn(C2CCC(O)CC2)c2ncnc(N)c12 (stereo not shown) [Compound 74] | < 100 | < 100 |  | 
23 | Cc1ccc(NC(=O)c2ccc(Cl)c(C(F)(F)F)c2)cc1C#Cc1nn(CC2CCN(S(C)(=O)=O)CC2)c2ncnc(N)c12 [Compound 75] | 100 to 500 | > 1000 |  | 
24 | Cc1ccc(NC(=O)c2ccc(Cl)c(C(F)(F)F)c2)cc1C#Cc1nn(C2CCCC2)c2ncnc(N)c12 [Compound 78] | < 100 | 500 to 1000 |  | 

Further lines, with some results ahead:

Row | IC50 (MDA-MB-231; MDA-MB-231, MTT, 72 hours) [nM] | IC50 (MDA-MB-435; MDA-MB-435, MTT, 72 hours) [nM] | Compound | IC50 (MDA-MB-231; MDA-MB-231, 72 h) [nM] | IC50 (MDA-MB-435; MDA-MB-435, 72 h) [nM]
25 | 100 to 500 | > 1000 | Cc1ccc(NC(=O)c2ccc(C)c(C#Cc3nn(C(C)C)c4ncnc(N)c34)c2)cc1 [Compound 22] |  | 
26 | > 1000 | 100 to 500 | CCn1nc(C#Cc2cc(C(=O)Nc3ccc(CN4CCN(C)CC4)c(C(F)(F)F)c3)ccc2F)c2c(N)ncnc21 [Compound 23] |  | 
27 | > 1000 | > 1000 | CCn1nc(C#Cc2cc(C(=O)Nc3ccc(CN4CCN(C)CC4)c(C(F)(F)F)c3)ccc2C(C)C)c2c(N)ncnc21 [Compound 27] |  | 
28 | < 100 | < 100 | Cc1ccc(NC(=O)c2ccc(CN3CCN(C)CC3)c(C(F)(F)F)c2)cc1C#Cc1nn(C)c2ncnc(N)c12 [Compound 28] |  | 
29 | < 100 | 100 to 500 | Cc1ccc(C(=O)Nc2cccc(C(F)(F)F)c2)cc1C#Cc1nn(C2CCN(C)CC2)c2ncnc(N)c12 [Compound 32] |  | 
30 | 500 to 1000 | 100 to 500 | CN1CCC(n2nc(C#Cc3cccc(NC(=O)c4cccc(C(F)(F)F)c4)c3)c3c(N)ncnc32)CC1 [Compound 33] |  | 
31 | 500 to 1000 | 100 to 500 | CN1CCC(n2nc(C#Cc3cc(NC(=O)Nc4cccc(C(F)(F)F)c4)ccc3Cl)c3c(N)ncnc32)CC1 [Compound 36] |  | 
32 | > 1000 | 100 to 500 | CN1CCC(n2nc(C#Cc3cccc(C(=O)Nc4cccc(C(F)(F)F)c4)c3)c3c(N)ncnc32)CC1 [Compound 37] |  | 
33 | < 100 | < 100 | Cc1ccc(NC(=O)c2cccc(C(C)(C)C)c2)cc1C#Cc1nn(C2CCN(C)CC2)c2ncnc(N)c12 [Compound 40] |  | 
34 | 500 to 1000 | > 1000 | Cc1ccc(NC(=O)c2ccc(C(F)(F)F)cc2)cc1C#Cc1nn(C2CCN(C)CC2)c2ncnc(N)c12 [Compound 41] |  | 
35 | < 100 | < 100 | Cc1ccc(NC(=O)c2ccc(C)c(C(F)(F)F)c2)cc1C#Cc1nn(C2CCN(C)CC2)c2ncnc(N)c12 [Compound 42] |  | 
36 | > 1000 | > 1000 | COc1ccc(C(=O)Nc2ccc(C)c(C#Cc3nn(C4CCN(C)CC4)c4ncnc(N)c34)c2)cc1 [Compound 43] |  | 
37 | 500 to 1000 | > 1000 | Cc1ccc(NC(=O)c2cccc(F)c2)cc1C#Cc1nn(C2CCN(C)CC2)c2ncnc(N)c12 [Compound 45] |  | 
38 | 500 to 1000 | > 1000 | Cc1ccc(NC(=O)c2ccc(F)c(Cl)c2)cc1C#Cc1nn(C2CCN(C)CC2)c2ncnc(N)c12 [Compound 46] |  | 
39 | 500 to 1000 | 500 to 1000 | Cc1ccc(NC(=O)c2ccc(F)c(C(F)(F)F)c2)cc1C#Cc1nn(C2CCN(C)CC2)c2ncnc(N)c12 [Compound 47] |  | 
40 | 100 to 500 | 100 to 500 | Cc1ccc(NC(=O)c2cc(C(F)(F)F)ccc2F)cc1C#Cc1nn(C2CCN(C)CC2)c2ncnc(N)c12 [Compound 50] |  | 

Row | IC50 (MDA-MB-231; MDA-MB-231, MTT, 72 hours) [nM] | IC50 (MDA-MB-435; MDA-MB-435, MTT, 72 hours) [nM] | Compound | IC50 (MDA-MB-231; MDA-MB-231, 72 h) [nM] | IC50 (MDA-MB-435; MDA-MB-435, 72 h) [nM]
41 | 100 to 500 | 100 to 500 | Cc1cccc(C(=O)Nc2ccc(C)c(C#Cc3nn(C4CCN(C)CC4)c4ncnc(N)c34)c2)c1 [Compound 55] |  | 
42 | 500 to 1000 | > 1000 | Cc1ccc(NC(=O)c2cccc(C(F)(F)F)n2)cc1C#Cc1nn(C2CCN(C)CC2)c2ncnc(N)c12 [Compound 57] |  | 
43 | 100 to 500 | < 100 | Cc1ccc(NC(=O)c2cncc(C(F)(F)F)c2)cc1C#Cc1nn(C2CCN(C)CC2)c2ncnc(N)c12 [Compound 58] |  | 
44 | 100 to 500 | 100 to 500 | Cc1ccc(NC(=O)c2ccnc(C(F)(F)F)c2)cc1C#Cc1nn(C2CCN(C)CC2)c2ncnc(N)c12 [Compound 59] |  | 
45 | < 100 | < 100 | Cc1ccc(C(=O)Nc2cc(C(C)(C)C)on2)cc1C#Cc1nn(C2CCN(C)CC2)c2ncnc(N)c12 [Compound 62] |  | 
46 | 100 to 500 | < 100 | Cc1ccc(NC(=O)c2cc(C(C)(C)C)nn2C)cc1C#Cc1nn(C2CCN(C)CC2)c2ncnc(N)c12 [Compound 63] |  | 
47 | 100 to 500 | < 100 | Cc1ccc(NC(=O)c2cc(C(C)(C)C)on2)cc1C#Cc1nn(C2CCN(C)CC2)c2ncnc(N)c12 [Compound 64] |  | 
48 | < 100 | < 100 | Cc1ccc(NC(=O)c2nc(C(C)(C)C)cs2)cc1C#Cc1nn(C2CCN(C)CC2)c2ncnc(N)c12 [Compound 65] |  | 
49 | 100 to 500 | 100 to 500 | Cc1ccc(NC(=O)c2cc(Cl)cc(Cl)c2)cc1C#Cc1nn(C2CCN(C)CC2)c2ncnc(N)c12 [Compound 68] |  | 
50 | < 100 | > 1000 | Cc1ccc(NC(=O)c2ccc(Cl)c(C(F)(F)F)c2)cc1C#Cc1nn(CC2CCN(C)C2)c2ncnc(N)c12 (stereo not shown) [Compound 69] |  | 
51 | < 100 | 500 to 1000 | Cc1ccc(NC(=O)c2ccc(Cl)c(C(F)(F)F)c2)cc1C#Cc1nn(C2CCN(C(=O)[C@H](C)O)CC2)c2ncnc(N)c12 [Compound 70] |  | 
52 | < 100 | < 100 | Cc1ccc(NC(=O)c2ccc(Cl)c(C(F)(F)F)c2)cc1C#Cc1nn(C2CCN(C(=O)[C@@H](C)O)CC2)c2ncnc(N)c12 [Compound 71] |  | 
53 | < 100 | > 1000 | Cc1ccc(NC(=O)c2ccc(Cl)c(C(F)(F)F)c2)cc1C#Cc1nn([C@@H]2CCN(C(=O)[C@H](C)O)C2)c2ncnc(N)c12 [Compound 72] |  | 
54 | < 100 | > 1000 | Cc1ccc(NC(=O)c2ccc(Cl)c(C(F)(F)F)c2)cc1C#Cc1nn([C@@H]2CCN(C(=O)[C@@H](C)O)C2)c2ncnc(N)c12 [Compound 73] |  | 
55 | < 100 | 100 to 500 | Cc1ccc(NC(=O)c2ccc(Cl)c(C(F)(F)F)c2)cc1C#Cc1nn(CC2CCN(S(C)(=O)=O)C2)c2ncnc(N)c12 (stereo not shown) [Compound 76] |  | 
56 | 500 to 1000 | > 1000 | Cc1ccc(NC(=O)c2ccc(Cl)c(C(F)(F)F)c2)cc1C#Cc1nn(C2CCC2)c2ncnc(N)c12 [Compound 77] |  | 
